# Experimental data published in PubChem BioAssay AID1353 (Sanford-Burnham Center for Chemical Genomics, 2008).
# Active and inactive are the calls of the source.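 How the source made its calls: active means ATP loss reduced by over 30% versus thapsigargin-only wells, at any thapsigargin dose tested; inactive means the rest.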
# Tested on: C17.2 differentiated neurons, thapsigargin death, ATPlite, 24 h
# Assay: ER stress death protection in C17.2 cells – cell-based, differentiated mouse neural stem C17.2, ATP luminescence, SAR follow-up (AID 1353)
# Settings: at 25 µM; stronger effect = higher value
row,Structure (SMILES),survival
1,COc1ccc(C2CC(=O)C3=C(C2)Nc2ccccc2NC3c2cc(C)ccc2C)cc1 (stereo not drawn),2% (inactive)
2,CSc1ccc(C2Nc3ccccc3NC3=C2C(=O)CC(c2ccccc2)C3)cc1 (stereo not drawn),2% (inactive)
3,COc1ccc(C2CC(=O)C3=C(C2)Nc2ccccc2NC3c2ccccc2C(F)(F)F)cc1OC (stereo not drawn),12% (inactive)
4,COc1ccc(C2CC(=O)C3=C(C2)Nc2ccccc2NC3c2cccc(Br)c2)cc1OC (stereo not drawn),7% (inactive)
5,COc1ccc(C2CC(=O)C3=C(C2)Nc2ccccc2NC3c2cccc(C(F)(F)F)c2)cc1OC (stereo not drawn),5% (inactive)
6,COc1ccc(C2CC(=O)C3=C(C2)Nc2ccccc2NC3c2cccc(Oc3ccccc3)c2)cc1OC (stereo not drawn),50%
7,CCOc1cccc(C2Nc3ccccc3NC3=C2C(=O)CC(c2ccc(OC)cc2)C3)c1 (stereo not drawn),1% (inactive)
8,CCCOc1ccc(C2Nc3ccccc3NC3=C2C(=O)CC(c2ccc(OC)c(OC)c2)C3)cc1 (stereo not drawn),20% (inactive)
9,O=C1CC(c2ccccc2)CC2=C1C(c1c(F)cccc1Cl)Nc1ccccc1N2 (stereo not drawn),10% (inactive)
10,CCOc1cc(C2Nc3ccccc3NC3=C2C(=O)CC(c2ccc(OC)cc2)C3)cc(Cl)c1O (stereo not drawn),1% (inactive)
11,CC1(C)CC(=O)C2=C(C1)Nc1ccccc1NC2c1ccc(-c2ccccc2)cc1 (stereo not drawn),1% (inactive)

# Same assay, conditions: measured here: survival at thapsigargin 5 uM; at 25 µM; stronger effect = higher value
row,Structure (SMILES),survival [%]
1,COc1ccc(C2CC(=O)C3=C(C2)Nc2ccccc2NC3c2cc(C)ccc2C)cc1 (stereo not drawn),69
2,CSc1ccc(C2Nc3ccccc3NC3=C2C(=O)CC(c2ccccc2)C3)cc1 (stereo not drawn),86
3,COc1ccc(C2CC(=O)C3=C(C2)Nc2ccccc2NC3c2ccccc2C(F)(F)F)cc1OC (stereo not drawn),55
4,COc1ccc(C2CC(=O)C3=C(C2)Nc2ccccc2NC3c2cccc(Br)c2)cc1OC (stereo not drawn),67
5,COc1ccc(C2CC(=O)C3=C(C2)Nc2ccccc2NC3c2cccc(C(F)(F)F)c2)cc1OC (stereo not drawn),59
6,COc1ccc(C2CC(=O)C3=C(C2)Nc2ccccc2NC3c2cccc(Oc3ccccc3)c2)cc1OC (stereo not drawn),68
7,CCOc1cccc(C2Nc3ccccc3NC3=C2C(=O)CC(c2ccc(OC)cc2)C3)c1 (stereo not drawn),83
8,CCCOc1ccc(C2Nc3ccccc3NC3=C2C(=O)CC(c2ccc(OC)c(OC)c2)C3)cc1 (stereo not drawn),62
9,O=C1CC(c2ccccc2)CC2=C1C(c1c(F)cccc1Cl)Nc1ccccc1N2 (stereo not drawn),87
10,CCOc1cc(C2Nc3ccccc3NC3=C2C(=O)CC(c2ccc(OC)cc2)C3)cc(Cl)c1O (stereo not drawn),79
11,CC1(C)CC(=O)C2=C(C1)Nc1ccccc1NC2c1ccc(-c2ccccc2)cc1 (stereo not drawn),45

# Same assay, conditions: measured here: survival at thapsigargin 15 uM; at 25 µM; stronger effect = higher value
row,Structure (SMILES),survival [%]
1,COc1ccc(C2CC(=O)C3=C(C2)Nc2ccccc2NC3c2cc(C)ccc2C)cc1 (stereo not drawn),0
2,CSc1ccc(C2Nc3ccccc3NC3=C2C(=O)CC(c2ccccc2)C3)cc1 (stereo not drawn),0
3,COc1ccc(C2CC(=O)C3=C(C2)Nc2ccccc2NC3c2ccccc2C(F)(F)F)cc1OC (stereo not drawn),1
4,COc1ccc(C2CC(=O)C3=C(C2)Nc2ccccc2NC3c2cccc(Br)c2)cc1OC (stereo not drawn),0
5,COc1ccc(C2CC(=O)C3=C(C2)Nc2ccccc2NC3c2cccc(C(F)(F)F)c2)cc1OC (stereo not drawn),0
6,COc1ccc(C2CC(=O)C3=C(C2)Nc2ccccc2NC3c2cccc(Oc3ccccc3)c2)cc1OC (stereo not drawn),1
7,CCOc1cccc(C2Nc3ccccc3NC3=C2C(=O)CC(c2ccc(OC)cc2)C3)c1 (stereo not drawn),0
8,CCCOc1ccc(C2Nc3ccccc3NC3=C2C(=O)CC(c2ccc(OC)c(OC)c2)C3)cc1 (stereo not drawn),1
9,O=C1CC(c2ccccc2)CC2=C1C(c1c(F)cccc1Cl)Nc1ccccc1N2 (stereo not drawn),1
10,CCOc1cc(C2Nc3ccccc3NC3=C2C(=O)CC(c2ccc(OC)cc2)C3)cc(Cl)c1O (stereo not drawn),0
11,CC1(C)CC(=O)C2=C(C1)Nc1ccccc1NC2c1ccc(-c2ccccc2)cc1 (stereo not drawn),0
